The source of these data is patent US20060153932A1, “Method of treating hyperphosphataemia using lanthanum hydroxycarbonate” (Shire Pharmaceuticals, Inc., priority 2004, published 2006).

Series [1] is described as follows: 4-week oral toxicity study in rats. As to conditions: 103 or 1030 mg lanthanum/kg/day for 4 weeks. On the procedure: A study was conducted to assess the toxicity of lanthanum hydroxycarbonate. Rats were dosed orally with lanthanum hydroxycarbonate (103 or 1030 mg lanthanum/kg/day), lanthanum carbonate tetrahydrate (103 or 1030 mg lanthanum/kg/day) or vehicle for 4 weeks.

Series [2] is described as follows: In vitro phosphorus binding of lanthanum compounds. On the procedure:
In order to evaluate the efficacy of lanthanum hydroxycarbonate as a phosphate binder, the in vitro phosphorus binding of lanthanum hydroxycarbonate and lanthanum carbonate tetrahydrate were measured using the methodology described below:
The equivalent of 1 g elemental lanthanum as either lanthanum hydroxycarbonate or as lanthanum carbonate tetrahydrate was added to 500 mL of 0.1N HCl at 37° C. and adjusted to pH 1 with HCl which contained 300 mg of phosphorus. The preparation was stirred and sampled at regular intervals. This sample was filtered and the filtrate measured for phosphorus content using a Sigma Diagnostics Kit for Inorganic Phosphorus determination. The loss of phosphorus from the filtrate represents the amount of phosphorus bound by lanthanum and precipitated then retained on the filter.

For `O.O.O.O.O=C([O-])[O-].O=C([O-])[O-].O=C([O-])[O-].[La+3].[La+3]` [lanthanum carbonate tetrahydrate, Lanthanum carbonate tetrahydrate], in series [1], the “Plasma exposure to lanthanum” value is reported as “similar”. With `O=C([O-])[O-].[La+3].[OH-]` [lanthanum hydroxycarbonate], the “rates of in vitro phosphate binding as compared to lanthanum carbonate tetrahydrate” value in series [2] (dosed at the same level of elemental lanthanum) was “improved rates of in vitro phosphate binding”. In addition, the “more effective at binding phosphate in vitro, compared to lanthanum carbonate tetrahydrate” value in series [2] (pH 1, same level of elemental lanthanum) was “approximately 50%”.
